By IC50 is commonly meant the concentration that inhibits the measured activity by half. Broadly, the Cmax is the maximum level reached in the sampled fluid or tissue.

The target of one data set is ROCK-II (Homo sapiens, UniProt O75116). In words: ROCK-II biochemical counter-screen.
Another data set deals with Limk1 (Homo sapiens, UniProt P53667). As to the kind of experiment: Limk1 biochemical assay (Reaction Biology, 10-dose IC50). The arrangement: His; purchased Reaction Biology Corporation; host or cells: insect cells. Particulars: for Limk1 inhibition: compared with 14a, values only in FIG. 4.
Chain of Limk1 (P53667 285-638): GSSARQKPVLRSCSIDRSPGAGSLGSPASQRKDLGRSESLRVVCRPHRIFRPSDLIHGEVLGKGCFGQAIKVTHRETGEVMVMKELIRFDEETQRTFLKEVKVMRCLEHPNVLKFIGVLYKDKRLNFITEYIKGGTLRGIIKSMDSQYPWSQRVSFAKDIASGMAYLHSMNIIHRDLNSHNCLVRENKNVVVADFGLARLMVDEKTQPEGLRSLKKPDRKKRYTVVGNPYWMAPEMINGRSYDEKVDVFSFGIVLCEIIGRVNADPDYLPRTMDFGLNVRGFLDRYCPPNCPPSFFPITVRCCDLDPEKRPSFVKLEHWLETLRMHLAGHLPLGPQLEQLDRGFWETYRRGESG
Data set [1] can be described thus: Plasma pharmacokinetics studies on rats. Particulars: rats; for AUC (iv) / Cl (iv) / T1/2 (iv) / Yd (iv) / Cmax: iv dosing 1 mg/kg; for F (%) (po): po dosing 2 mg/kg; for Cmax: read-out: Cmax (iv). The method, then:
In vivo pharmacokinetics (PK) studies were conducted for selected compounds during the whole optimization at various stages in order to identify structural elements that are favorable for in vivo applications, and/or to evaluate the feasibility of optimized Limk inhibitors for animal studies.

[2] abbreviates: Table 1, means of ≥2 experiments, read-out: IC50 (nM) ROCK-II.
Where [3] appears, read: Table 4, means of ≥2 experiments, read-out: IC50 (nM) ROCK-II.

Read-outs that look alike come from different tables or passages of the source.

Chain of ROCK-II (O75116 whole entry, species assumed): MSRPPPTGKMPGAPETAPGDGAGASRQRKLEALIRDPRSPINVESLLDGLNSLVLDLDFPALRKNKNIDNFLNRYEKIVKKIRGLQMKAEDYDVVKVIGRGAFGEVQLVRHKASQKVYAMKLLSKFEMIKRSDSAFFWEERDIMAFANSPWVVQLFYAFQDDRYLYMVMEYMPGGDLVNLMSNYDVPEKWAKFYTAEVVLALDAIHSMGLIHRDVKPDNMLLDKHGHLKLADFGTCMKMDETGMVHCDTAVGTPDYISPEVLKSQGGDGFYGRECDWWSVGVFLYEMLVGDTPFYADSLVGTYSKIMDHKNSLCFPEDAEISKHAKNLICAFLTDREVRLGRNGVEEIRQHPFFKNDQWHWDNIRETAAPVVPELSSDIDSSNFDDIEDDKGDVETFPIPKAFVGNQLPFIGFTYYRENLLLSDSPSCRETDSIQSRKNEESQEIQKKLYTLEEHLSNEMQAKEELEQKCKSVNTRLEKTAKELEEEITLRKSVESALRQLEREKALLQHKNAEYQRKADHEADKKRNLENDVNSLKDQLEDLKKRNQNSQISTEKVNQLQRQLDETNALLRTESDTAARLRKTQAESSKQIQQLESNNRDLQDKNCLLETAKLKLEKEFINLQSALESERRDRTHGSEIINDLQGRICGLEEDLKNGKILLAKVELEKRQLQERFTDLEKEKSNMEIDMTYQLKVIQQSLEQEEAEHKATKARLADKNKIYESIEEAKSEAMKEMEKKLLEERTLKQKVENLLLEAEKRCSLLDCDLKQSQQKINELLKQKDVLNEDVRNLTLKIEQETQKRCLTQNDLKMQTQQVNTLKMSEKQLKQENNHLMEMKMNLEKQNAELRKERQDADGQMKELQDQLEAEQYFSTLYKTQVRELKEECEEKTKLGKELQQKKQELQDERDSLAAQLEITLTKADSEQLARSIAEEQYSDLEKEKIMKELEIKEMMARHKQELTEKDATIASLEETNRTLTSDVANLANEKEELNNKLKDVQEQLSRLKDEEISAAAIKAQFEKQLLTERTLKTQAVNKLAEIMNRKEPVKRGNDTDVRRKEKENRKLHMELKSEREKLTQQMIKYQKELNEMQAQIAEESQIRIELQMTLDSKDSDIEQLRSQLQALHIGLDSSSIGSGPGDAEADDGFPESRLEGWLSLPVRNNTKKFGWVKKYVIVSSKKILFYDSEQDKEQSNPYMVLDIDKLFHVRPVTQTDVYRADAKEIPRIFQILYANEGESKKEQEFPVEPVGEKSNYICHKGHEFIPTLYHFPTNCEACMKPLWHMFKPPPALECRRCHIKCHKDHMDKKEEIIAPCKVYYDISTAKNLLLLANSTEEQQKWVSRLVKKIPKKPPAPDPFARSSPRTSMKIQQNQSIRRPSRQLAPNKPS

Turning to `CC(C)NC(=O)c1cccc(NC(=O)Nc2ccc(-c3ncnc4[nH]ccc34)cc2)c1` [Compound 3, 3-(3-(4-(7H-pyrrolo[2,3-d]pyrimidin-4-yl)phenyl)ureido)-N-isopropylbenzamide], the IC50 came to 1360 nM at ROCK-II (setting [2]) and 201 nM at Limk1 (read-out: Limk1 IC50).

With `CC(C)NC(=O)c1cccc(NC(=O)Nc2ccc(-c3cn[nH]c3)cc2)c1` [Compound 7a, 3-(3-(4-(1H-pyrazol-4-yl)phenyl)ureido)-N-isopropylbenzamide], the IC50 at ROCK-II (setting [2]) was 45 nM; at Limk1 (Table 1, means of ≥2 experiments, read-out: IC50 (nM) Limk1), greater than 10000 nM.

As for `Cc1c[nH]c2ncnc(-c3ccc(NC(=O)Nc4cccc(C(=O)NC(C)C)c4)cc3)c12` [Compound 7g, N-Isopropyl-3-(3-(4-(5-methyl-7H-pyrrolo[2,3-d]pyrimidin-4-yl)phenyl)ureido)benzamide], in data set [1], the “AUC (iv)” value was 4.3 µM·h, the “Cl (iv)” value is on record as 9.0 mL/min/kg, the “T1/2 (iv)” value came to 1.0 h and the “Yd (iv)” value was 0.3 L/kg. In data set [1], the “F (%) (po)” value amounted to 0% and the Cmax came out at 8.5 µM.

For the compound `COc1ccc(NC(=O)Nc2ccc(-c3ncnc4[nH]cc(C)c34)cc2)cc1` [Compound 10e, 1-(4-Methoxyphenyl)-3-(4-(5-methyl-7H-pyrrolo[2,3-d]pyrimidin-4-yl)phenyl)urea], the IC50 at ROCK-II (Table 3, means of ≥2 experiments, read-out: IC50 (nM) ROCK-II) was greater than 10000 nM; at ROCK-II (read-out: ROCK-II IC50), greater than 10000 nM.

For the compound `COc1ccc(NC(=O)N(C)c2ccc(-c3ncnc4[nH]cc(C)c34)cc2)cc1` [Compound 14a, 3-(4-Methoxyphenyl)-1-methyl-1-(4-(5-methyl-7H-pyrrolo[2,3-d]pyrimidin-4-yl)phenyl)urea], the half-inhibitory concentration (IC50) at Limk1 (read-out: Limk1 IC50) amounted to 1090 nM.

For `COc1ccc(NC(=O)N(CCN2CCCC2)c2ccc(-c3ncnc4[nH]cc(C)c34)cc2)cc1` [Compound 14b, 3-(4-Methoxyphenyl)-1-(4-(5-methyl-7H-pyrrolo[2,3-d]pyrimidin-4-yl)phenyl)-1-(2-(pyrrolidin-1-yl)ethyl)urea], the “Limk1 inhibition” value on Limk1 is given as “even lower Limk1 inhibitions”.

For `COc1ccc(NC(=O)N(CCN2CCCCC2)c2ccc(-c3ncnc4[nH]cc(C)c34)cc2)cc1` [Compound 14c, 3-(4-Methoxyphenyl)-1-(4-(5-methyl-7H-pyrrolo[2,3-d]pyrimidin-4-yl)phenyl)-1-(2-(piperidin-1-yl)ethyl)urea], the “Limk1 inhibition” value on Limk1 was “even lower Limk1 inhibitions”.

On to `Cc1c[nH]c2ncnc(-c3ccc(NC(=O)N(CCO)c4ccccc4F)cc3)c12` [Compound 18c, 1-(2-Fluorophenyl)-1-(2-hydroxyethyl)-3-(4-(5-methyl-7H-pyrrolo[2,3-d]pyrimidin-4-yl)phenyl)urea], for which the IC50 on ROCK-II (setting [3]) came to 1600 nM.

Turning to `Cc1c[nH]c2ncnc(-c3ccc(NC(=O)N(CCO)c4cccc(F)c4)cc3)c12` [Compound 18d, 1-(3-Fluorophenyl)-1-(2-hydroxyethyl)-3-(4-(5-methyl-7H-pyrrolo[2,3-d]pyrimidin-4-yl)phenyl)urea], the IC50 on ROCK-II (setting [3]) was 1900 nM.

`Cc1ccccc1N(CCO)C(=O)Nc1ccc(-c2ncnc3[nH]cc(C)c23)cc1` [Compound 18i, 1-(2-Hydroxyethyl)-3-(4-(5-methyl-7H-pyrrolo[2,3-d]pyrimidin-4-yl)phenyl)-1-o-tolylurea]: the 50% inhibitory concentration (IC50) at ROCK-II (setting [3]) was greater than 10000 nM.

In the case of `COc1ccc(N(CCN)C(=O)Nc2ccc(-c3ncnc4[nH]cc(C)c34)cc2)cc1` [Compound 18o, 1-(2-Aminoethyl)-1-(4-methoxyphenyl)-3-(4-(5-methyl-7H-pyrrolo[2,3-d]pyrimidin-4-yl)phenyl)urea], in data set [1], the “AUC (iv)” value worked out at 1.1 µM·h, the “Cl (iv)” value came out at 36.0 mL/min/kg, the “T1/2 (iv)” value stood at 4.6 h and the “Yd (iv)” value is 6.0 L/kg. In data set [1], the “F (%) (po)” value is reported as 0% and the Cmax turned out to be 2.2 µM. At Limk1 (Table 4, means of ≥2 experiments, read-out: IC50 (nM) Limk1), the IC50 is 27 nM.

For `COc1ccc(N(CCN(C)C)C(=O)Nc2ccc(-c3ncnc4[nH]cc(C)c34)cc2)cc1` [Compound 18q, 1-(2-(Dimethylamino)ethyl)-1-(4-methoxyphenyl)-3-(4-(5-methyl-7H-pyrrolo[2,3-d]pyrimidin-4-yl)phenyl)urea], the IC50 on ROCK-II (setting [3]) and at ROCK-II (read-out: ROCK-II IC50) was greater than 10000 nM each time.

(Values after US20190292189A1, “LIM KINASE INHIBITORS” (VIRONGY, LLC, priority 2016, published 2019).)
